Numbers after ± are expanded uncertainties.
How the values were obtained:
[1] = 102.24 kPa, Liquid, Frequency=5 MHz, Single path-length method
[2] = xn = mol fraction of the nth substance listed; conditions: 102.24 kPa, Liquid, x2 = 0; for speed of sound: Frequency=5 MHz, Single path-length method; for mass density: Vibrating tube method

Row | speed of sound ([1]; 293.15 K) [m/s] | speed of sound ([1]; 298.15 K) [m/s] | speed of sound ([1]; 303.15 K) [m/s] | speed of sound ([1]; 308.15 K) [m/s] | speed of sound ([1]; 313.15 K) [m/s] | speed of sound ([1]; 318.15 K) [m/s] | speed of sound ([1]; 323.15 K) [m/s] | speed of sound ([1]; 328.15 K) [m/s] | speed of sound ([1]; 333.15 K) [m/s] | speed of sound ([1]; 338.15 K) [m/s] | speed of sound ([1]; 343.15 K) [m/s] | speed of sound ([2]; 313.15 K) [m/s] | mass density ([2]; 323.15 K) [kg/m3] | speed of sound ([2]; 328.15 K) [m/s] | mass density ([2]; 328.15 K) [kg/m3] | speed of sound ([2]; 333.15 K) [m/s] | mass density ([2]; 333.15 K) [kg/m3] | Structure (SMILES)
1 | 1656.9 ± 8.1 | 1638.4 ± 8.1 | 1624.6 ± 8.1 | 1607 ± 8.1 | 1588.5 ± 8.1 | 1573.2 ± 8.1 | 1558.3 ± 8.1 | 1543.7 ± 8.1 | 1527 ± 8.1 | 1507.1 ± 8.1 | 1492.6 ± 8.1 | – | – | – | – | – | – | CCC(=O)[O-].C[NH2+]CCO [2-hydroxy-N-methylethanaminium propionate]
2 | – | – | – | – | – | – | – | – | – | – | – | 1528.9 ± 8 | 988 ± 1.7 | 1547.4 ± 8 | 985.7 ± 1.7 | 1551 ± 8 | 983.2 ± 1.7 | O [water] + CCC(=O)[O-].C[NH2+]CCO

Source: the NIST ThermoML archive (doi:10.1016/j.jct.2015.04.005)
